# Data reported in ChEMBL document CHEMBL5661943, “ASAP - In vitro antiviral effect” (2024).
# pEC50: −log10 of the molar value.
# How the values were obtained:
# [1] = tested on: Zika virus; assay: Functional immunofluorescence assay to measure dose dependent changes in antiviral-drug inhibitory efficacy against Zika virus PRVABC59 in Vero E6/TMPRSS2 cells. Cells are treated with antiviral candidates that are serially diluted, following infection, cells are fixed. EC50 is reported via analysis of immunofluorescence staining. The assay has been performed by Icahn School of Medicine at Mount Sinai.; type: organism-based, Chlorocebus sabaeus; conditions: for pEC50: VeroE6/TMPRSS2
# [2] = tested on: dengue virus type 2; assay: Functional immunofluorescence assay to measure dose dependent changes in antiviral-drug inhibitory efficacy against Dengue virus type 2 Thailand/16681/84 in Vero E6/TMPRSS2 cells (cotreated with P-gp inhibitor, Elacridar). Cells are treated with antiviral candidates that are serially diluted, following infection, cells are fixed. EC50 is reported via analysis of immunofluorescence staining. The assay has been performed by Icahn School of Medicine at Mount Sinai.; type: organism-based, Chlorocebus sabaeus, VeroE6/TMPRSS2
# [3] = tested on: Zika virus; assay: EC50 is reported via analysis of immunofluorescence staining. The assay has been performed by Icahn School of Medicine at Mount Sinai.; type: functional, organism-based, Chlorocebus sabaeus, VeroE6/TMPRSS2; conditions: for EC90: P-gp concentration 2 uM, P-gp inhibitor Elacidar
# [4] = tested on: Zika virus; assay: Functional CPE-based assay to measure dose dependent changes in antiviral-drug inhibitory efficacy against Zika virus MR766 in Vero E6 miRFP670 cells. Cells are treated with antiviral candidates that are serially diluted. EC50 is reported via analysis of MTS assay as a readout of CPE. The assay has been performed by KU Leuven.; type: organism-based, Chlorocebus sabaeus, Vero C1008; conditions: Zika virus; for pEC50: Vero C1008
# [5] = tested on: dengue virus type 2; assay: Functional assay to measure dose dependent changes in antiviral-drug inhibitory efficacy against Dengue virus type 2 New Guinea C in Vero E6 miRFP670 cells (cotreated with P-gp inhibitor, CP100356). Cells are treated with antiviral candidates that are serially diluted, following infection, cells are fixed. EC50 is reported via analysis of fluorescence intensity using high-content imager. The …; type: organism-based, Chlorocebus sabaeus, Vero C1008; conditions: Dengue virus
compound,measurement,setting,value
O=C(Nc1cc(Cl)cc(C(=O)Nc2cccc(-c3nnn[nH]3)c2)c1)OCc1ccccc1,pEC50,[1],< 4.30
same,EC90,"[1]; VeroE6/TMPRSS2, Maximum measured 198.65 %, Minimum measured 79.352 %",> 50 µM
same,pEC50,"[2]; Dengue virus, VeroE6/TMPRSS2",4.31
same,EC90,"[2]; Dengue virus, VeroE6/TMPRSS2, Baseline response 0 %, Hill slope -12.435, Maximum measured 130.492 %, Maximum response 60 %, Minimum measured 25.847 %, P-gp concentration 2 uM, R squared 0.033, P-gp inhibitor Elacidar",> 50 µM
same,pEC50,"[3]; Zika virus, VeroE6/TMPRSS2",5.57
same,EC90,"[3]; Zika virus, VeroE6/TMPRSS2, Baseline response 0 %, Hill slope -0.321, Maximum measured 94.477 %, Maximum response 100 %, Minimum measured 40.195 %, R squared 0.392",> 16.7 µM
O=C(Nc1cc(Cl)cc(C(=O)Nc2cccc(-n3nn[nH]c3=O)c2)c1)OCc1ccccc1,pEC50,[1],4.34
same,EC90,"[1]; VeroE6/TMPRSS2, Baseline response 0 %, Hill slope -14.888, Maximum measured 123.167 %, Maximum response 100 %, Minimum measured 20.725 %, R squared 0.524",> 50 µM
same,pEC50,[4],< 4.30
same,EC90,"[4]; Vero C1008, Baseline response 0 %, Hill slope -0.529, Maximum measured 3.199 %, Maximum response 100 %, Minimum measured -1.205 %, R squared 0.435",> 50 µM
same,pEC50,"[2]; Dengue virus, VeroE6/TMPRSS2",4.42
same,EC90,"[2]; Dengue virus, VeroE6/TMPRSS2, Baseline response 0 %, Hill slope -4.745, Maximum measured 70.688 %, Maximum response 60 %, Minimum measured 12.915 %, P-gp concentration 2 uM, R squared 0.282, P-gp inhibitor Elacidar",> 50 µM
same,pEC50,"[3]; Zika virus, VeroE6/TMPRSS2",6.08
same,EC90,"[3]; Zika virus, VeroE6/TMPRSS2, Baseline response 0 %, Hill slope -0.989, Maximum measured 91.506 %, Maximum response 100 %, Minimum measured 6.41 %, R squared 0.606",> 5.56 µM
same,pEC50,[5]; Vero C1008,4.36
same,EC90,[5]; Vero C1008,48.8 µM
O=C(Nc1ccc2c(c1)CNC2)c1cc(Cl)cc(-n2cccc2)c1,pEC50,[4],< 4.30
same,EC90,"[4]; Vero C1008, Baseline response 0 %, Hill slope 0.167, Maximum measured 17.974 %, Maximum response 100 %, Minimum measured 0.845 %, R squared 0.067",> 50 µM
same,pEC50,"[2]; Dengue virus, VeroE6/TMPRSS2",4.82
same,EC90,"[2]; Dengue virus, VeroE6/TMPRSS2, Baseline response 0 %, Hill slope -12.71, Maximum measured 168.092 %, Maximum response 100 %, Minimum measured 22.727 %, P-gp concentration 2 uM, R squared 0.109, P-gp inhibitor Elacidar",> 16.7 µM
same,pEC50,"[3]; Zika virus, VeroE6/TMPRSS2",< 5.26
same,EC90,"[3]; Zika virus, VeroE6/TMPRSS2, Maximum measured 131.342 %, Minimum measured 97.756 %",> 5.56 µM
same,EC90,"[3]; Zika virus, VeroE6/TMPRSS2, Baseline response 0 %, Hill slope -0.378, Maximum measured 125.075 %, Maximum response 100 %, Minimum measured 52.976 %, R squared 0.223",> 5.56 µM
same,pEC50,[5]; Vero C1008,4.74
same,EC90,"[5]; Vero C1008, Baseline response 0 %, Hill slope -1.567, Maximum measured 91.76 %, Maximum response 100 %, Minimum measured 2.031 %, P-gp concentration 500 nM, R squared 0.898, P-gp inhibitor CP100356",> 50 µM
O=C(O)COc1cccc(NC(=O)c2cc(Cl)cc(NC(=O)OCc3ccccc3)c2)c1,pEC50,[4],< 4.30
same,EC90,"[4]; Vero C1008, Maximum measured -[…], Minimum measured -2.209 %",> 50 µM
same,pEC50,"[2]; Dengue virus, VeroE6/TMPRSS2",< 4.30
same,EC90,"[2]; Dengue virus, VeroE6/TMPRSS2, Maximum measured 97.013 %, Minimum measured 38.667 %, P-gp concentration 2 uM, P-gp inhibitor Elacidar",> 50 µM
same,pEC50,"[3]; Zika virus, VeroE6/TMPRSS2",< 4.30
same,EC90,"[3]; Zika virus, VeroE6/TMPRSS2, Baseline response 0 %, Hill slope 0.101, Maximum measured 106.686 %, Maximum response 100 %, Minimum measured 54.693 %, R squared 0.072",> 50 µM
same,pEC50,[5]; Vero C1008,< 4.30
same,EC90,"[5]; Vero C1008, Maximum measured 107.555 %, Minimum measured 104.836 %, P-gp concentration 500 nM, P-gp inhibitor CP100356",> 50 µM
CC(C)(C)NC(=O)[C@H](Nc1cccc(-c2nn[nH]n2)c1)c1cc(Cl)cc(NC(=O)OCc2ccccc2)c1,pEC50,[4],4.30
same,EC90,"[4]; Vero C1008, Baseline response 0 %, Hill slope 4.346, Maximum measured 50.323 %, Maximum response 100 %, Minimum measured -0.582 %, R squared 0.944",> 50 µM
same,pEC50,"[2]; Dengue virus, VeroE6/TMPRSS2",< 4.30
same,EC90,"[2]; Dengue virus, VeroE6/TMPRSS2, Maximum measured 98.938 %, Minimum measured 28.549 %, P-gp concentration 2 uM, P-gp inhibitor Elacidar",> 50 µM
same,pEC50,"[3]; Zika virus, VeroE6/TMPRSS2",4.43
same,EC90,"[3]; Zika virus, VeroE6/TMPRSS2, Baseline response 0 %, Hill slope -8.55, Maximum measured 97.768 %, Maximum response 77.157 %, Minimum measured 5.982 %, R squared 0.78",48.4 µM
same,pEC50,[5]; Vero C1008,4.30
same,EC90,"[5]; Vero C1008, Baseline response 0 %, Hill slope -29.373, Maximum measured 114.47 %, Maximum response 100 %, Minimum measured 52.367 %, P-gp concentration 500 nM, R squared 0.626, P-gp inhibitor CP100356",> 50 µM
CCOc1cccc(-c2ccc(S(=O)(=O)Nc3ccc(Cl)cc3C(=O)O)cc2C)c1,pEC50,[4],< 4.30
same,EC90,"[4]; Vero C1008, Baseline response 0 %, Hill slope -0.317, Maximum measured 5.247 %, Maximum response 100 %, Minimum measured -4.425 %, R squared 0.236",> 50 µM
same,pEC50,"[2]; Dengue virus, VeroE6/TMPRSS2",6.76
same,EC90,"[2]; Dengue virus, VeroE6/TMPRSS2",> 16.7 µM
same,pEC50,"[3]; Zika virus, VeroE6/TMPRSS2",5.61
same,EC90,"[3]; Zika virus, VeroE6/TMPRSS2, Baseline response 0 %, Hill slope -0.481, Maximum measured 136.466 %, Maximum response 100 %, Minimum measured 2.895 %, R squared 0.53",> 50 µM
same,pEC50,[5]; Vero C1008,4.65
same,EC90,"[5]; Vero C1008, Baseline response 0 %, Hill slope -31.955, Maximum measured 106.035 %, Maximum response 100 %, Minimum measured 0.035 %, P-gp concentration 500 nM, R squared 0.9, P-gp inhibitor CP100356",23.9 µM
O=C(Nc1cc(Cl)cc(C(=O)Nc2cccc(C3CCNCC3)c2)c1)OCc1ccccc1,pEC50,[4],< 4.30
same,EC90,"[4]; Vero C1008, Maximum measured 1.3 %, Minimum measured -10.726 %",> 50 µM
same,EC90,"[2]; Baseline response 0 %, Hill slope -7.018, Maximum measured 136.667 %, Maximum response 100 %, Minimum measured 60.314 %, P-gp concentration 2 uM, R squared 0.441, P-gp inhibitor Elacidar",> 1.85 µM
same,pEC50,"[2]; Dengue virus, VeroE6/TMPRSS2",5.49
same,EC90,"[2]; Dengue virus, VeroE6/TMPRSS2, Baseline response 0 %, Hill slope -0.392, Maximum measured 120.272 %, Maximum response 100 %, Minimum measured 45.482 %, P-gp concentration 2 uM, R squared 0.27, P-gp inhibitor Elacidar",> 3.33 µM
same,pEC50,[2]; veroe6/tmprss2,< 5.73
same,pEC50,"[3]; Zika virus, VeroE6/TMPRSS2",5.49
same,EC90,"[3]; Zika virus, VeroE6/TMPRSS2, Maximum measured 120.28 %, Minimum measured 106.347 %",> 1.85 µM
same,EC90,"[3]; Zika virus, VeroE6/TMPRSS2, Baseline response 0 %, Hill slope -10.935, Maximum measured 129.824 %, Maximum response 100 %, Minimum measured 42.275 %, R squared 0.16",> 3.33 µM
same,pEC50,[3]; veroe6/tmprss2,< 5.73
same,pEC50,[5]; Vero C1008,5.39
same,EC90,"[5]; Vero C1008, Baseline response 0 %, EC90 CI (lower) 2.724 uM, EC90 CI (upper) 4.009 uM, Hill slope -10.989, Maximum measured 107.904 %, Maximum response 100 %, Minimum measured 0.838 %, P-gp concentration 500 nM, R squared 0.983, P-gp inhibitor CP100356",4.93 µM
O=C(Nc1ccc2c(c1)CNC2)c1cc(Br)cc2[nH]c(-c3ccccc3)nc12,pEC50,[4],> 6.41
same,EC90,"[4]; Vero C1008, Baseline response 0 %, Hill slope -0.169, Maximum measured 22.843 %, Maximum response 100 %, Minimum measured -3.22 %, R squared 0.045",< 0.391 µM
same,pEC50,"[2]; Dengue virus, VeroE6/TMPRSS2",< 4.30
same,EC90,"[2]; Dengue virus, VeroE6/TMPRSS2, Maximum measured 303.364 %, Minimum measured 144.726 %, P-gp concentration 2 uM, P-gp inhibitor Elacidar",> 50 µM
same,pEC50,"[3]; Zika virus, VeroE6/TMPRSS2",< 5.26
same,EC90,"[3]; Zika virus, VeroE6/TMPRSS2, Maximum measured 77.487 %, Minimum measured 34.255 %",> 5.56 µM
same,pEC50,[5]; Vero C1008,< 4.30
same,EC90,"[5]; Vero C1008, Baseline response 0 %, Hill slope -0.881, Maximum measured 119.709 %, Maximum response 100 %, Minimum measured 77.354 %, P-gp concentration 500 nM, R squared 0.142, P-gp inhibitor CP100356",> 50 µM
O=C(NS(=O)(=O)C1CC1)c1cc(Cl)ccc1NS(=O)(=O)c1ccc(Oc2ccccc2Cl)cc1,pEC50,[4],< 4.30
same,EC90,"[4]; Vero C1008, Baseline response 0 %, Hill slope 1.706, Maximum measured 45.349 %, Maximum response 100 %, Minimum measured -3.564 %, R squared 0.879",> 50 µM
same,pEC50,"[2]; Dengue virus, VeroE6/TMPRSS2",4.37
same,EC90,"[2]; Dengue virus, VeroE6/TMPRSS2, Baseline response 0 %, Hill slope -20.818, Maximum measured 101.748 %, Maximum response 70 %, Minimum measured 2.339 %, P-gp concentration 2 uM, R squared 0.5, P-gp inhibitor Elacidar",47.3 µM
same,pEC50,"[3]; Zika virus, VeroE6/TMPRSS2",4.34
same,EC90,"[3]; Zika virus, VeroE6/TMPRSS2, Baseline response 0 %, Hill slope -22.702, Maximum measured 122.036 %, Maximum response 100 %, Minimum measured 12.187 %, R squared 0.505",> 50 µM
same,pEC50,[5]; Vero C1008,4.35
same,EC90,"[5]; Vero C1008, Baseline response 0 %, Hill slope -56.608, Maximum measured 108.404 %, Maximum response 100 %, Minimum measured 0.137 %, P-gp concentration 500 nM, R squared 0.959, P-gp inhibitor CP100356",46.3 µM
